Laboratory results from patent publication US8404706B2, “Opioid and opioid-like compounds and uses thereof” (Jenken Biosciences, Inc., priority 2002, dated 2013).

Key:
σ1 = σ1 (Homo sapiens, UniProt Q99720); conditions: cited from earlier work; for Ki: read-out: Ki (σ1-ligands)
[1] = system: nitrate (an indicator of NO); assay: Plasma nitrate in LPS-treated rats; assay type: in vivo, Wistar-Kyoto (WKY) rats; conditions: 5 mg/Kg iv 30 min before LPS (10 mg/Kg iv); 6 h after LPS
Protocol: (§1) Wistar-Kyoto (WKY) rats were anesthetized by intraperitoneal injection of urethane (1.2 g/kg). The trachea was cannulated to facilitate respiration and environmental temperature was maintained at 24° C. with an air-conditioning system. […] The left jugular vein was cannulated for the administration of drugs. Upon completion of the surgical procedure, cardiovascular parameters were allowed to stabilize for 30 min. After recording baseline hemodynamic parameters, animals were given norepinephrine [NE, 1 μg/kg intravenously (i.v.)], and 10 min later animals received vehicle (saline) or Escherichia coli lipopolysaccharide (LPS), 5-10 mg/kg, i.v. and were monitored for 360 min. The pressor responses to NE were reassessed every hour after vehicle or LPS injection. […] All hemodynamic and biochemical parameters were recorded for 6 hours in all animal groups.
Fifty microliters of plasma previously kept in −20° C. freezer was thawed and de-proteinized by incubating with 95% ethanol (4° C.) for 30 min. […] The amounts of nitrate in the plasma ([…]) were measured by adding a reducing agent (0-8% VCl3 in 1N HCl) to the purge vessel to convert nitrate to NO, which was stripped from the plasma by using a helium gas purge. […] Nitrate concentrations were calculated by comparison with standard solutions of sodium nitrate (Sigma Chemical Co., St. Louis, Mo.). […]

Superoxide = Superoxide in LPS-treated rats; assay type: in vivo; conditions: 6 h after LPS
Protocol: (§2) Compounds, XXV and XXVI (shown below), were tested according to the foregoing protocols. In the following tables, XXV or XXVI (5 mg/Kg, iv) was injected 30 min before LPS treatment (10 mg/Kg, iv) unless otherwise indicated. In all experiments, at least six rats were tested. All measurements were performed 6 h after LPS injection unless otherwise indicated. The inhibitory effects of the compounds tested were described as a percentage of protection or inhibition with respect to the change in LPS-treated animals as compared to the control animals.

Creatinine = assay: Plasma creatinine in LPS-treated rats; assay type: in vivo; conditions: 5 mg/Kg iv 30 min before LPS (10 mg/Kg iv); 6 h after LPS
Protocol: as §1, with “injection. Prior to (i.e., at time 0) and every hour after vehicle or LPS, 0.5 mL of blood was taken to measure the changes in cytokine tumor necrosis factor-α (TNF-α), interleukin-10β (IL-10), and nitrate (an indicator of NO) (Yen, M. H. et al., Shock 14, 60-67, 2000).” for “injection.”
(§3) BUN and Creatinine levels were measured at 0 and 6 hr after injection of saline or LPS by “DRI-Chemical slide” (Fujifilm Co., dropping 10 μL plasma onto the slide with micropipette). […]

[2] = system: ICR mice injected with LPS; assay: Survival study after LPS; assay type: in vivo
Protocol: Survival studies were performed in ICR mice (28-35 g), whose stock originated from the Institute of Cancer Research of National Institute of Health in U.S.A. They were purchased from the National Animal Center (Taipei, R.O.C., Taiwan). LPS [60 mg/kg intraperitoneally (i.p.)] was injected in the presence of vehicle or drugs and survival was monitored every 6 hours until 36 hours, Different groups of animals received vehicle (saline) together with LPS (n=20) or LPS plus compounds (2.5 mg/kg at time 0 and 6 hours after LPS, n=20).
All values in the figures and text are expressed as mean. SEM of n observations, where n represents the number of animals studied. Statistical evaluation was performed by using analysis of variance (ANOVA) followed by a multiple comparison test (Scheffe's test), the IL-10 level and the neutrophil infiltration index which were analyzed by unpaired Student's t test. The chi-square test was used for determining the significant differences in the survival rate between control and drug-treated groups. A P value of less than 0.05 was considered to be statistically significant.

TNF-α = assay: Plasma TNF-α (ELISA) in LPS-treated rats; assay type: in vivo, Wistar-Kyoto (WKY) rats; conditions: 5 mg/Kg iv 30 min before LPS (10 mg/Kg iv); measurement taken at 2 h
Protocol: (§4) Wistar-Kyoto (WKY) rats were anesthetized by intraperitoneal injection of urethane (1.2 g/kg). The trachea was cannulated to facilitate respiration and environmental temperature was maintained at 24° C. with an air-conditioning system. […] The left jugular vein was cannulated for the administration of drugs. Upon completion of the surgical procedure, cardiovascular parameters were allowed to stabilize for 30 min. After recording baseline hemodynamic parameters, animals were given norepinephrine [NE, 1 μg/kg intravenously (i.v.)], and 10 min later animals received vehicle (saline) or Escherichia coli lipopolysaccharide (LPS), 5-10 mg/kg, i.v. and were monitored for 360 min. The pressor responses to NE were reassessed every hour after vehicle or LPS injection. Prior to (i.e., at time 0) and every hour after vehicle or LPS, 0.5 mL of blood was taken to measure the changes in cytokine tumor necrosis factor-α (TNF-α), interleukin-10β (IL-10), and nitrate (an indicator of NO) (Yen, M. H. et al., Shock 14, 60-67, 2000). Any blood withdrawn was immediately replaced by the injection of an equal volume of saline (i.v.) in order to maintain the blood volume. The drug was administered i.v. 30 min. prior to and 30 min. after the injection of LPS. All hemodynamic and biochemical parameters were recorded for 6 hours in all animal groups.
Blood samples (0.3 mL) for the measurement of TNF-α level in the plasma were obtained at 0, 60, 120, 180, and 360 min. after the injection of saline or LPS. At 60 and 360 min. after the injection of saline or LPS, the volume of blood sample taken from the animals was 0.5 mL instead of 0.3 mL for performing the measurement of IL-10 in addition to TNF-α. These samples were collected from a catheter placed in the carotid artery and were centrifuged at 7200 g for 3 min. to obtain the plasma for measuring the levels of TNF-α, IL-10, and nitrate (as described below). The plasma samples (100 μL) were diluted 1:2, and TNF-α was measured in duplicate with an enzyme-linked immunoadsorbent assay (ELISA) kit (Genzyme Co., Cambridge, Mass.), and the amounts of IL-10 in the plasma (100 μL) were measured by ELISA kit (Endogen Inc., Boston, Mass.), as described previously (Yen, M. H. et al.: Biochem. Biophys. Res. Commun. 228:459-466 (1996)).
Compounds, XXV and XXVI (shown below), were tested according to the foregoing protocols. In the following tables, XXV or XXVI (5 mg/Kg, iv) was injected 30 min before LPS treatment (10 mg/Kg, iv) unless otherwise indicated. In all experiments, at least six rats were tested. All measurements were performed 6 h after LPS injection unless otherwise indicated. […]

SGPT = assay: Serum glutamic pyrate transaminase (SGPT) in LPS-treated rats; assay type: in vivo; conditions: for SGPT, LPS + Compound / SGPT % Inhibition: 6 h after LPS
Protocol: as §4
(§5) 10 μl of serum was taken out at 0 and 6 hr intervals and were added to slides of GOP and GTP and then placed in DRI-CHEM 3000 (Colorige Tric Analyzer; FUJIFILM; Tokyo, Japan.
as §2

Blood urea nitrogen = Blood urea nitrogen (BUN) in LPS-treated rats; assay type: in vivo; conditions: 5 mg/Kg iv 30 min before LPS (10 mg/Kg iv); 6 h after LPS
Protocol: as §4, with “Any blood withdrawn was immediately replaced by the injection of an equal volume of saline (i.v.) in order to maintain the blood volume. The drug was administered i.v. 30 min. prior to and 30 min. after the injection of LPS.” left out
as §3

[3] = system: lung tissues of rats receiving lipopolysaccharide (LPS); assay: Histological study of lung tissue after LPS
Text: Lungs and livers were obtained from surviving mice in each group after the survival study and these tissues were fixed in Carson-Millonig's solution for histopathological examination as described previously in Chen, A. et al. Lab. […] The fixed lung and liver tissues were dehydrated in graded ethanol and embedded in paraffin. Three-micron sections were stained with the hematoxylin and eosin reagent for light microscopy. […] This histological alteration was quantitatively analyzed as an index on the severity of tissue injury. This index was a neutrophil infiltration index which was determined by counting the numbers of neutrophils in 10 randomly selected high power fields. The index was expressed as the mean of these 10 numbers±standard error of the mean (SEM)/high power field.

[4] = system: rats treated with lipopolysaccharide (LPS); assay: Heart rate in LPS-treated rats; assay type: in vivo, Wistar-Kyoto (WKY) rats; conditions: 5 mg/Kg iv 30 min before LPS (10 mg/Kg iv); 6 h after LPS
Protocol: as §4, §2

SGOT = assay: Serum glutamic oxaloacetic transaminase (SGOT) in LPS-treated rats; assay type: in vivo; conditions: for SGOT % Inhibition / SGOT, LPS + Compound: 6 h after LPS
Protocol: as §4, §5, §2

[5] = system: rats treated with lipopolysaccharide (LPS); assay: Mean arterial blood pressure (MAP) in LPS-treated rats; assay type: in vivo, Wistar-Kyoto (WKY) rats; conditions: 5 mg/Kg iv 30 min before LPS (10 mg/Kg iv); 6 h after LPS
Protocol: as §4, §2

[6] = 5 mg/Kg iv 30 min before LPS (10 mg/Kg iv)
[7] = 5 mg/Kg iv 30 min before LPS (10 mg/Kg iv), XXVI value not statistically significant
[8] = 6 hours after LPS, pretreatment (30 min before LPS; 5, 10 mg/kg) and post-treatment (30 min after LPS; 10 mg/kg), p<0.05

σ1, sequence (Q99720 whole entry): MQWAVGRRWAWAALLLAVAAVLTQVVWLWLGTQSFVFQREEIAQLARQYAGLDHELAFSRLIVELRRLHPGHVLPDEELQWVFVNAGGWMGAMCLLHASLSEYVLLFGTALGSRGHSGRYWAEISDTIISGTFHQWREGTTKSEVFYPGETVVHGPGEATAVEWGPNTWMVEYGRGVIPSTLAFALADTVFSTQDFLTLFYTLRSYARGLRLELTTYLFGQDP

Br.C=CCN1CC[C@]23CCCC[C@H]2[C@H]1Cc1ccc(OC)cc13
melting point: 190 to 192 °C

Br.COc1ccc2c(c1)[C@@]13CCCC[C@H]1[C@@H](C2)N(Cc1ccccc1)CC3
melting point: 185 to 186 °C

Br.COc1ccc2c(c1)[C@@]13CCCC[C@H]1[C@@H](C2)N(Cc1ccc(F)cc1)CC3
melting point: 226 to 228 °C

C=CCN1CCC2(C)c3cc(O)ccc3CC1C2C (stereo not shown) [N-allylnormetazocine]
affinity at σ1 (σ1): relatively poor affinity | σ1/σ2 ratio (σ1; selectivity ratio): < 100

C=CCCCCN1CCC2(C)c3cc(O)ccc3CC1C2C (stereo not shown) [N-hex-5-enyl]
Ki (σ1): 1 nM | σ2/σ1 (σ1; selectivity ratio): 750

C=CCCCN1CCC2(C)c3cc(O)ccc3CC1C2C (stereo not shown) [N-pent-4-enyl]
Ki (σ1): 2 nM | σ2/σ1 (σ1; selectivity ratio): 1250

COc1ccc2c(c1)[C@]13CCCCC1[C@H](C2)N(C)CC3 (stereo partly shown) [XXVI]
Nitrate % Inhibition [1]: 75% | Nitrate, LPS + Compound [1]: 75 µM | Superoxide % Inhibition (Superoxide; [6]): 68% | Superoxide, LPS + Compound (Superoxide; [6]): 8200 relative units | Creatinine % of Inhibition (Creatinine): 60% | Creatinine, LPS + Compound (Creatinine): 0.40 mg/dL | % of Protection (survival at 14 h) ([2]; 14 h after LPS): 100% | % of Survival at 14 h, LPS + Compound ([2]; 14 h after LPS, method: LPS 60 mg/kg i.p., compound 2.5 mg/kg at 0 and 6 h): 100% | % of Protection (survival at 18 h) ([2]; 18 h after LPS): 40% | % of Survival at 18 h, LPS + Compound ([2]; 18 h after LPS, method: LPS 60 mg/kg i.p., compound 2.5 mg/kg at 0 and 6 h): 40% | TNF-α % Inhibition (TNF-α): 74% | TNF-α, LPS + Compound (TNF-α): 510 ng/mL | SGPT, LPS + Compound (SGPT; [6]): 36 U/L | SGPT % Inhibition (SGPT; [7]): 100^3% | Blood urine nitrogen % of Inhibition (Blood urea nitrogen): 47% | Blood urine nitrogen, LPS + Compound (Blood urea nitrogen): 45 mg/dL | Lung tissue morphology after compound alone ([3]; injections of compound alone, no LPS, n=2, FIG. 5 (400×) and FIG. 6 (40×)): morphologically relatively normal lung tissues | PMN infiltration in lung caused by LPS ([3]; pretreatment with compound, high power (400×) light microscope, FIG. 5): improved | Thickness of alveolar wall with interstitial congestion and edema caused by LPS ([3]; pretreatment with compound, low power (40×) light microscope, FIG. 6): improved | Heart Rate % Protection [4]: 36% | Heart Rate, LPS + Compound [4]: 420 beats/min | SGOT % Inhibition (SGOT; [6]): 53% | SGOT, LPS + Compound (SGOT; [6]): 158 U/L | MAP % Protection [5]: 100% | MAP, LPS + Compound [5]: 105 mmHg

O=C1CC[C@@]2(O)[C@@H]3Cc4ccc(O)c5c4C2(CCN3CC2CC2)[C@H]1O5 [XXV]
Superoxide % Inhibition (Superoxide; Post-treatment with 10 mg/Kg): 69% | Superoxide, LPS + Compound (Superoxide; Post-treatment with 10 mg/Kg): 15720 relative units | Superoxide % Inhibition (Superoxide; Pretreatment with 10 mg/Kg): 85% | Superoxide, LPS + Compound (Superoxide; Pretreatment with 10 mg/Kg): 11866 relative units | TNF-α % Inhibition (TNF-α): 50% | TNF-α, LPS + Compound (TNF-α): 180 ng/mL | SGPT, LPS + Compound (SGPT; [6]): 61.6 U/L | SGPT % Inhibition (SGPT; [7]): 78% | Effect on SGTP after LPS (SGPT; [8]): significant decrease | SGPT % Inhibition (SGPT; Post-treatment with 10 mg/Kg): 82% | SGPT, LPS + Compound (SGPT; Post-treatment with 10 mg/Kg): 59.6 U/L | SGPT % Inhibition (SGPT; Pretreatment with 10 mg/Kg): 94% | SGPT, LPS + Compound (SGPT; Pretreatment with 10 mg/Kg): 53.8 U/L | Heart Rate % Protection [4]: >90% | Heart Rate, LPS + Compound [4]: 410 beats/min | SGOT % Inhibition (SGOT; [6]): 60% | SGOT, LPS + Compound (SGOT; [6]): 192 U/L | Effect on SGOT after LPS (SGOT; [8]): significant decrease | SGOT % Inhibition (SGOT; Post-treatment with 10 mg/Kg): 76% | SGOT, LPS + Compound (SGOT; Post-treatment with 10 mg/Kg): 192 U/L | SGOT % Inhibition (SGOT; Pretreatment with 10 mg/Kg): 94% | SGOT, LPS + Compound (SGOT; Pretreatment with 10 mg/Kg): 192 U/L | MAP % Protection [5]: 33% | MAP, LPS + Compound [5]: 80 mmHg
